Our source for the IC50 and Kb values is patent publication US20190152992A1, “BENZODIOXANE DERIVATIVES AND THEIR PHARMACEUTICAL USE” (Orion Corporation, priority 2016, published 2019).

One assay concerns the target T1, human alpha2A receptors (Homo sapiens, UniProt P08913).
T1 sequence (P08913 1-465): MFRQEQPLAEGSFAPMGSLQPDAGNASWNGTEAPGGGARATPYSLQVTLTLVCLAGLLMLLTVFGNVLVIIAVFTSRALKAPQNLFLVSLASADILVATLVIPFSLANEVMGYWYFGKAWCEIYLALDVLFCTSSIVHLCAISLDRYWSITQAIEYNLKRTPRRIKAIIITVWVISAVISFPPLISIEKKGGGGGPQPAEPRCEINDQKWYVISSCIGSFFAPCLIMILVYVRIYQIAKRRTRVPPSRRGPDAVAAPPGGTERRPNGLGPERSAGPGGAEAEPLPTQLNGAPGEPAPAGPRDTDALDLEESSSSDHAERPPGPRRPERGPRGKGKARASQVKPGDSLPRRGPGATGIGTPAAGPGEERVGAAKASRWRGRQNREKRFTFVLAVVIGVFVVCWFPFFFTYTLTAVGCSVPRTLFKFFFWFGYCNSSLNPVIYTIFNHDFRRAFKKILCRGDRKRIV
Kind of assay: cell-based.

A further assay concerns the target T2, human alpha2C receptors (Homo sapiens, UniProt P18825).
T2 sequence (P18825 1-462): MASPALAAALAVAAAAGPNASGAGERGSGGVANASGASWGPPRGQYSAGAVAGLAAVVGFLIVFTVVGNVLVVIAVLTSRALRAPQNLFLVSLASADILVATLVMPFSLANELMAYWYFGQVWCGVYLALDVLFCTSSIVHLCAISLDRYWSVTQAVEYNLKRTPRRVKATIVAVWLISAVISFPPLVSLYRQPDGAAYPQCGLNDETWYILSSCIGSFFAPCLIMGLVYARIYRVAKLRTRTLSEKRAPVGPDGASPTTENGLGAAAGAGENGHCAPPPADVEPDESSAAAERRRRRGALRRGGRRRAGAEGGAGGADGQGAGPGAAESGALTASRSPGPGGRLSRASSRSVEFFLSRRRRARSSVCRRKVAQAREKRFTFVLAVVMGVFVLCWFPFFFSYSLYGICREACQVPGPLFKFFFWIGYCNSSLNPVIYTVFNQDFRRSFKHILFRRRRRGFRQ
Kind of assay: Determination of alpha2C antagonistic activity in vitro (FLIPR calcium assay). As to conditions: for Kb: Alpha 2C Adrenaline Kb, Kb calculated from IC50 with the Cheng-Prusoff equation, adrenaline as agonist, CHO cells, human alpha2C.

The structures appear in SMILES notation. Where a name gives a salt, the structure may show the parent alone.

Method for human alpha2C receptors: Experiment 1: Determination of alpha2A and alpha2C Antagonistic Activity In Vitro
The growth medium was removed and the cells were incubated with the test compounds and the FLIPR Calcium 6 Assay reagent (Molecular Devices, CA, USA) for 2 h at 37° C. in dark. The test compounds (concentrations in cells 100 pM-10 μM) were dissolved in Probenecid-Ringer consisting of 150 mM NaCl, 3 mM KCl, 1.2 mM MgCl2, 1 mM CaCl2, 5 mM glucose, 20 mM HEPES and 2.5 mM probenecid (pH 7.4 adjusted with 1.0 M NaOH). […] All experiments were performed at 37° C. For agonism measurements the test compounds dissolved in Probenecid-Ringer were applied by FLIPR Tetra at 15 s time point. In order to determine antagonism, the cells were stimulated either with 100 nM adrenaline or noradrenaline and the test compounds were added to the cells 2 h before the experiment with the FLIPR Calcium 6 Assay reagent. […] Typically, there were four replicates at each concentration and six different dose levels. […] The minimum fluorescence value subtracted from the maximum value for each well was used in the calculations. ScreenWorks version 4.0 software was used for analyzing the results. Fitting of the antagonist dose-response results was performed with the free Hill equation and the IC50 values were fitted with IDBS XE software using model 200: y=(A+(B/(1+((x/C)̂D)))), where A is the curve maximum, B the curve minimum and C equals the EC50 value. D is slope factor (Hill). Kb was calculated with the Cheng-Prusoff equation Kb=A/((B/C)+1), where A is the IC50 of antagonist, B the concentration of agonist and C the EC50 of the agonist.

In the case of `O=C1Cc2ccccc2N1[C@H]1CCCN(C[C@H]2COc3ccccc3O2)C1` [example 26, 1-((S)-1-(((S)-2,3-Dihydrobenzo[b][1,4]dioxin-2-yl)methyl)piperidin-3-yl)indolin-2-one], at human alpha2A receptors, the IC50 – broadly, the concentration at which inhibition is half-maximal – was above 10000 nM and the Kb was above 449 nM. Besides, on human alpha2C receptors, the IC50 was 27.9 nM and the Kb is 2.81 nM.

In the case of `Cc1ccc2c(c1)CN([C@H]1CCCN(C[C@H]3COc4ccccc4O3)C1)C2=O` [example 59, 2-((S)-1-(((S)-2,3-Dihydrobenzo[b][1,4]dioxin-2-yl)methyl)piperidin-3-yl)-5-methylisoindolin-1-one formate], at human alpha2A receptors, the IC50 is above 10000 nM and the Kb was above 449 nM. On human alpha2C receptors, the IC50 is below 0.01 nM and the Kb is below 0.001 nM.

For `CC(=O)NCC1CN([C@H]2CCCN(C[C@H]3COc4ccccc4O3)C2)C(=O)O1` (stereo partly drawn) [example 20, N-((3-((S)-1-(((S)-2,3-Dihydrobenzo[b][1,4]dioxin-2-yl)methyl)piperidin-3-yl)-2-oxooxazolidin-5-yl)methyl)acetamide], the IC50 on human alpha2A receptors is above 10000 nM; on human alpha2C receptors, 6.91 nM. Further, the figures for the Kb on human alpha2A receptors and on human alpha2C receptors were above 449 nM and 0.696 nM, respectively.

As for `O=C1c2cccnc2C(=O)N1[C@H]1CCCN(C[C@H]2COc3ccccc3O2)C1` [example 75, 6-((S)-1-(((S)-2,3-Dihydrobenzo[b][1,4]dioxin-2-yl)methyl)piperidin-3-yl)-5H-pyrrolo[3,4-b]pyridine-5,7(6H)-dione], the IC50 was above 10000 nM against human alpha2A receptors and 0.95 nM at human alpha2C receptors. Besides, the Kb on human alpha2A receptors is above 449 nM; at human alpha2C receptors, 0.097 nM.

As to `O=C1C(=O)N([C@H]2CCCN(C[C@H]3COc4ccccc4O3)C2)C(=O)N1Cc1ccccn1` [example 142, 1-((S)-1-(((S)-2,3-Dihydrobenzo[b][1,4]dioxin-2-yl)methyl)piperidin-3-yl)-3-(pyridin-2-ylmethyl)imidazolidine-2,4,5-trione], the IC50 against human alpha2A receptors is above 10000 nM; on human alpha2C receptors, 0.846 nM. Besides, the Kb is above 449 nM at human alpha2A receptors and 0.085 nM on human alpha2C receptors.

Regarding `O=C1c2cccc(Cl)c2C(=O)N1[C@H]1CCCN(C[C@H]2COc3ccccc3O2)C1` [example 64, 4-Chloro-2-((S)-1-(((S)-2,3-dihydrobenzo[b][1,4]dioxin-2-yl)methyl)piperidin-3-yl)isoindoline-1,3-dione hydrochloride], the IC50 at human alpha2A receptors was above 10000 nM; on human alpha2C receptors it was 43.5 nM. The Kb on human alpha2A receptors was above 449 nM; at human alpha2C receptors it was 4.38 nM.

In the case of `O=c1n(-c2ccccc2)c2ccccc2n1[C@H]1CCCN(C[C@H]2COc3ccccc3O2)C1` [example 149, 1-((S)-1-(((S)-2,3-Dihydrobenzo[b][1,4]dioxin-2-yl)methyl)piperidin-3-yl)-3-phenyl-1H-benzo[d]imidazol-2(3H)-one], on human alpha2A receptors, the IC50 was above 10000 nM and the Kb is above 449 nM. Moreover, on human alpha2C receptors, the IC50 came out at 3220 nM and the Kb was 324 nM.

Regarding `CC(C)(C)N1C(=O)C(=O)N([C@H]2CCCN(C[C@H]3COc4ccccc4O3)C2)C1=O` [example 134, 1-tert-Butyl-3-((S)-1-(((S)-2,3-dihydrobenzo[b][1,4]dioxin-2-yl)methyl)piperidin-3-yl)imidazolidine-2,4,5-trione], the IC50 on human alpha2A receptors is above 10000 nM; at human alpha2C receptors, 0.796 nM. In addition, the Kb at human alpha2A receptors is above 449 nM; on human alpha2C receptors, 0.08 nM.

On human alpha2A receptors, `O=C1c2ccc(Cl)cc2CN1[C@H]1CCCN(C[C@H]2COc3ccccc3O2)C1` [example 60, 5-Chloro-2-((S)-1-(((S)-2,3-dihydrobenzo[b][1,4]dioxin-2-yl)methyl)piperidin-3-yl)isoindolin-1-one] displayed an IC50 above 10000 nM and a Kb above 449 nM. Further, on human alpha2C receptors, the 50% inhibitory concentration (IC50) was below 0.1 nM and the Kb is below 0.01 nM.
